Values joined by “and” are separate entries in the source; they are usually repeats but may differ in a detail not shown here. Equal values may be shown once.
Legend:
Format in all cases: cell-based
[1] = tested on: ERK1/2 phosphorylation, RAW264.7 cells; test: Western blot, AGE-induced ERK1/2 activation after TAT-fused peptides; details: AGEs+, relative to Ctrl without AGEs = 1
Experimental: (§1) Cultured cells in 6-well plates were harvested, washed twice with PBS, and lysed for 30 min on ice in 150 μl of cell lysis buffer (#9803) from CST (Boston, MA, USA) containing 1 mM PMSF and 2 μg/ml leupeptin. Proteins were quantified with the BCA method. Protein samples were resolved by 10% SDS-PAGE, transferred to a nitrocellulose (NC) membrane (#GE10600002), and blocked for 1 h with 5% nonfat milk in Tris-buffered saline containing 0.1% Tween 20 (TBST) at room temperature. After incubation with a specific primary antibody overnight at 4 °C, the membrane was washed with TBST three times. Then, the membrane was incubated with a secondary antibody for 1 h at room temperature. Enhanced chemiluminescence (ECL) (#32109, Thermo Fisher Scientific, Waltham, MA, USA) was used to visualize the protein bands, and images were acquired in a ChemiDoc™ Imaging System (Bio-Rad, Hercules, CA, USA). Each experiment was repeated at least three times.

[2] = tested on: IKKα/β phosphorylation, RAW264.7 cells; test: Western blot, AGE-induced IKKα/β activation after TAT-fused peptides; details: AGEs+, relative to Ctrl without AGEs = 1
Experimental: as §1

[3] = tested on: JNKs phosphorylation, RAW264.7 cells; test: Western blot, JNK phosphorylation in RAW264.7 cells treated with AGEs; details: AGEs 100 μg/ml; for JNK phosphorylation: Supplementary Fig. 4, single runs Exp1-Exp3
Experimental: as §1

[4] = tested on: IKKα/β phosphorylation, HEK293 cells; test: Western blot, IKKα/β phosphorylation in transfected HEK293 cells treated with AGEs; details: Fig. 4d, AGEs 100 μg/ml, 15 min, single runs Exp1-Exp3
Experimental: (§2) HEK293 cells (3 × 10^5) were cultured to a confluence of 80–90% in a 60 mm dish. Then, cells were transfected with 2 μg of total DNA by using 6 μl GeneJammer reagent (#204130, Agilent, Santa Clara, CA, USA) mixed with Opti-MEM (200 μl final volume) and were then incubated for 5 min at room temperature. RAW264.7 cells (1 × 10^5) were transfected with control siRNA, siRNA targeting AGER or siRNA targeting SLP76 using HiPerFect reagent (#301705, Qiagen, Hilden, Germany). SiRNA diluted in HiPerFect transfection reagent was premixed with Opti-MEM medium at room temperature for 5 min and incubated with cells in a 24-well plate for 48 h.
as §1

[5] = tested on: ERK1/2 phosphorylation, HEK293 cells; test: Western blot, ERK1/2 phosphorylation in transfected HEK293 cells treated with AGEs; details: Fig. 4c, AGEs 100 μg/ml, 15 min, single runs Exp1-Exp3
Experimental: as §2, §1

[6] = tested on: p38 MAPK phosphorylation, RAW264.7 cells; test: Western blot, p38 MAPK phosphorylation in RAW264.7 cells treated with AGEs; details: 15 min (P < 0.05)
Experimental: as §1

[7] = tested on: ERK1/2 phosphorylation, RAW264.7 cells; test: Western blot, ERK1/2 phosphorylation in RAW264.7 cells treated with AGEs; details: 15 min (P < 0.05)
Experimental: as §1

[8] = tested on: interaction between RAGE and SLP76 in HEK293 cells; test: Co-IP of Flag-SLP76 with HA-RAGE (HA-tag antibody) in HEK293 cells treated with AGEs; details: Fig. 1c–e
Experimental: as §2
After transfection for 24 h, HEK293 cells were treated with AGEs at the indicated times and doses. Then, cells were collected and lysed with lysis buffer, and protein was quantitated with a bicinchoninic acid (BCA) kit (#23227, Thermo Fisher Scientific, Waltham, MA, USA). Total input protein (500 µg) was incubated with anti-FLAG M2 beads or anti-HA affinity gel overnight at 4 °C. After brief centrifugation, samples were washed five times with lysis buffer containing 0.1% Tween 20. Samples were then resolved by SDS-PAGE and subjected to western blotting with a specific antibody against the HA or Flag tag.

[9] = tested on: p38 MAPK phosphorylation, RAW264.7 cells; test: Western blot, AGE-induced p38 MAPK activation after TAT-fused peptides; details: AGEs+, relative to Ctrl without AGEs = 1
Experimental: as §1

[10] = tested on: p38 MAPK phosphorylation, HEK293 cells; test: Western blot, p38 MAPK phosphorylation in transfected HEK293 cells treated with AGEs; details: Fig. 4b, AGEs 100 μg/ml, 15 min, single runs Exp1-Exp3
Experimental: as §2, §1

AGEs: AGEs-BSA (#2221-10) purchased from Biovision; advanced glycation end products, RAGE ligand
Relative ERK1/2 phosphorylation, Supplementary figure 11d ([1]; Exp1): 3.946
Relative ERK1/2 phosphorylation, Supplementary figure 11d ([1]; Exp2): 5.325
Relative ERK1/2 phosphorylation, Supplementary figure 11d ([1]; Exp3): 6.025
Relative IKKα/β phosphorylation, Supplementary figure 11e ([2]; Exp1): 3.559
Relative IKKα/β phosphorylation, Supplementary figure 11e ([2]; Exp2): 4.547
Relative IKKα/β phosphorylation, Supplementary figure 11e ([2]; Exp3): 6.152
Phosphorylation of JNKs ([3]; 0-240 min, n=3): no significant difference between groups
JNK phosphorylation ([3]; 5 min): 0.9831 and 1.298 and 1.325
JNK phosphorylation ([3]; 15 min): 1.062 and 0.8245 and 0.7215
JNK phosphorylation ([3]; 30 min): 1.133 and 1.03 and 0.8721
JNK phosphorylation ([3]; 60 min): 1.061 and 0.95 and 0.8845
JNK phosphorylation ([3]; 90 min): 1.254 and 1.05 and 0.7684
JNK phosphorylation ([3]; 120 min): 1.217 and 0.98 and 0.8649
JNK phosphorylation ([3]; 240 min): 1.277 and 0.91 and 0.7954
phosphorylated IKKα/β ([4]; RAGE overexpressed): 12.7634 and 9.791 and 10.05
phosphorylated IKKα/β ([4]; RAGE+SLP76 overexpressed): 21.1403 and 18.74 and 17.6458
phosphorylated IKKα/β ([4]; SLP76 overexpressed): 5.321 and 6.4 and 5.551
phosphorylated IKKα/β ([4]; control vector): 8.805 and 7.3 and 6.5457
phosphorylated ERK1/2 ([5]; RAGE overexpressed): 4.032 and 4.674 and 4.165
phosphorylated ERK1/2 ([5]; RAGE+SLP76 overexpressed): 5.962 and 6.497 and 6.322
phosphorylated ERK1/2 ([5]; SLP76 overexpressed): 3.146 and 2.87 and 3.315
phosphorylated ERK1/2 ([5]; control vector): 3.0116 and 3.25 and 2.795
Phosphorylation of p38 MAPK [6]: increased significantly
Phosphorylation of ERK1/2 [7]: increased significantly
RAGE/SLP76 binding after exposure to AGEs [8]: dose- and time-dependent
Relative p38 MAPK phosphorylation, Supplementary figure 11c ([9]; Exp1): 2.6013
Relative p38 MAPK phosphorylation, Supplementary figure 11c ([9]; Exp2): 2.501
Relative p38 MAPK phosphorylation, Supplementary figure 11c ([9]; Exp3): 3.172
phosphorylated p38 MAPK ([10]; RAGE overexpressed): 1.6247 and 1.965 and 1.83
phosphorylated p38 MAPK ([10]; RAGE+SLP76 overexpressed): 2.026 and 2.548 and 2.612
phosphorylated p38 MAPK ([10]; SLP76 overexpressed): 1.3753 and 1.591 and 1.725
phosphorylated p38 MAPK ([10]; control vector): 1.2576 and 1.45 and 1.104

— article PMC7804203, “Targeting adaptor protein SLP76 of RAGE as a therapeutic approach for lethal sepsis” (Nature Communications, 2021)
